Assay results taken from PubChem BioAssay AID179 (DTP/NCI, 2004).
“And” between values parts separate entries of the source, which are not always exact repeats. Equal values may be shown once. The source made the active and inactive calls.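 The calls were made as follows: active = compounds giving half or more protection of infected cells from virus-caused growth loss, again on retest; inactive = the rest.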

System: CEM cells HIV-1 protection, formazan growth assay
Assay: NCI AIDS Antiviral Assay
Settings: for IC50: measured here: growth of uninfected CEM cells
Summary of the method: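 Category rules: moderately active means at least 50% protection on retest, and confirmed active means 100% protection reproducibly. The underlying data came from a formazan growth assay in HIV-1-infected CEM cells.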

SMILES: CCCCCCCCCCCCCCCCOC1OC(CBr)C(O)C(O)C1O (stereo not drawn)
- EC50: > 8.13 µM
- IC50: > 8.13 µM

SMILES: NC(CSS(=O)(=O)O)=NCCc1ccccc1
- EC50: > 200 µM
- IC50: 110 µM

SMILES: O[C@H]1[C@@H](O)C2(C[C@@H]1Br)OC(COCc1ccccc1)[C@@H](COCc1ccccc1)O2 (stereo partly drawn)
- outcome: inactive

SMILES: CN(C)CCCNC(=O)c1cc(NC(=O)c2cc(NC(=O)c3cc(NC(=O)/C=C/C(=O)Nc4cn(C)c(C(=O)Nc5cn(C)c(C(=O)Nc6cn(C)c(C(=O)NCCCN(C)C)n6)n5)n4)cn3C)cn2C)cn1C
- EC50: > 50.1 µM
- IC50: > 50.1 µM

SMILES: CSc1cc(SC)ncn1
- EC50: > 1450 µM
- IC50: 1020 µM

SMILES: O=[N+]([O-])c1cccc2nccc(NCCCO)c12
- EC50: > 200 µM
- IC50: 6.92 µM

SMILES: CN(CO)c1nc(N(C)CO)nc(N(C)CO)n1
- EC50: > 26.3 µM
- IC50: 24 µM

SMILES: Cn1cnc2c1c(=O)n(CCNCCO)c(=O)n2C
- EC50: > 200 µM
- IC50: > 200 µM

SMILES: O=C(Nc1ccccc1)N1CCC2N(C(=O)Nc3ccccc3)CCC3N(C(=O)Nc4ccccc4)CCC1N23 (stereo not drawn)
- EC50: > 13.2 µM
- IC50: > 13.2 µM

SMILES: c1cc2nnnn2nc1N1CCCC1
- EC50: > 200 µM
- IC50: > 200 µM

SMILES: O=C(Nc1c(Cl)cc([N+](=O)[O-])cc1Cl)C(=O)C1C(=O)NC(=S)NC1=O
- EC50: > 89.1 µM
- IC50: > 89.1 µM

SMILES: CC(=O)[O-].CC(=O)[O-].[Mn+2].c1ccc(/C(=N\Nc2ccccn2)c2ccccn2)cc1
- outcome: inactive

SMILES: O=C1N=NC2=C1c1c3ccccc3c(O)n1CC2
- EC50: > 200 µM
- IC50: 166 µM

SMILES: CN(C)c1nc(NC23CC4CC(CC(C4)C2)C3)nc(N(C)C)n1
- EC50: > 200 µM
- IC50: 5.01 µM

SMILES: O=C1CCC(=O)N1n1c(Cc2ccc(Cl)cc2)n[nH]c1=O
- EC50: > 200 µM
- IC50: > 200 µM

SMILES: CCN(CC)CCNCc1cc(Cl)cc2c1OCOC2
- EC50: > 200 µM
- IC50: > 200 µM

SMILES: CSc1nc(NC2OC(CO)C(O)C(O)C2O)cc(=O)n1C (stereo not drawn)
- outcome: inactive

SMILES: O=c1c2c(sc3ccccc13)NCN(CCc1ccccc1)C2
- EC50: 17.4 µM
- IC50: 40.7 µM

SMILES: CC(C)C1(O)C(c2ccccc2)=C(c2ccccc2)C(c2ccccc2)=C1c1ccccc1
- outcome: inactive

SMILES: O=C1CSC(=S)N1N1C(=O)CSC1=S
- EC50: > 200 µM
- IC50: > 200 µM

SMILES: O=C(CN1CCOCC1)Nc1nc(-c2ccc(Cl)cc2)cs1
- EC50: > 107 µM
- IC50: 33.1 µM

SMILES: CC1C2CC(C(S(=O)(=O)N3CCOCC3)/C2=N\O)C1(C)C (stereo not drawn)
- EC50: > 200 µM
- IC50: 195 µM

SMILES: CCN(CC)CC(=O)NC1c2ccccc2Sc2c(C)cccc21 (stereo not drawn)
- EC50: > 148 µM
- IC50: 60.3 µM

SMILES: C[S+]1Cc2nc3ccccc3n2C1c1c(F)cccc1F (stereo not drawn)
- EC50: > 178 µM
- IC50: 79.4 µM

SMILES: CCOC(=O)N1CCC2C(=C(C)C(C)C3=C2C(=O)c2ccccc2C3=O)C1 (stereo not drawn)
- EC50: > 100 µM
- IC50: > 100 µM

SMILES: Clc1cccc(C2SCc3nc4ccccc4n32)c1Cl (stereo not drawn)
- outcome: inactive

SMILES: CC(C)(C)OC(=O)Nc1nnc(S(N)(=O)=O)s1
- EC50: 182 µM
- IC50: > 200 µM

SMILES: COc1cccc2c1C(=O)c1c(O)c3c(c(O)c1C2=O)C[C@@](O)(/C(C)=N/NC(=O)c1ccccc1)C[C@@H]3OC1CC(N)C(O)C(C)O1 (stereo partly drawn)
- EC50: > 50.1 µM
- IC50: 0.0158 µM

SMILES: CCCCCCCCCCN(CCCCCCCCCC)CC(=O)Nc1ccc(S(=O)(=O)c2ccc(NC(=O)CN(CCCCCCCCCC)CCCCCCCCCC)cc2)cc1
- EC50: > 50.1 µM
- IC50: 3.02 µM

SMILES: CC1(C)OC2O[C@H](C3OC[C@H]4O[C@@H](n5ccc(=O)[nH]c5=O)C(O)[C@H]4N3O)[C@@H]3OC(C)(C)O[C@@H]3C2O1 (stereo partly drawn)
- EC50: > 200 µM
- IC50: 105 µM

SMILES: O=C1CC2C=CC1C2CO (stereo not drawn)
- outcome: inactive

SMILES: S=C1CC(c2ccccc2)Sc2ccc(Cl)cc2N1 (stereo not drawn)
- EC50: > 200 µM
- IC50: 34.7 µM

SMILES: O=C1/C(=N\S(=O)(=O)c2ccccc2)C([n+]2ccc(Cc3ccccc3)cc2)=C([O-])c2ccccc21
- EC50: > 200 µM
- IC50: 2.63 µM

SMILES: COC(=O)Nc1cn2ccc(C(Cl)=C(Cl)Cl)cc2n1
- EC50: > 30.9 µM
- IC50: 0.0331 µM

SMILES: C#CC[N+](C)(CC#C)CC#C
- outcome: inactive

SMILES: COc1cc2c(cc1OC)C1=NN(c3ccccc3)C(=O)C1CC2 (stereo not drawn)
- EC50: > 8.51 µM
- IC50: > 8.51 µM

SMILES: CC12CCC(=O)N1c1ccccc1N2 (stereo not drawn)
- EC50: > 501 µM
- IC50: > 501 µM

SMILES: CC1=CC(C)=Nc2ccccc2N1
- EC50: > 200 µM
- IC50: > 200 µM and 195 µM

SMILES: OC1(c2ccc(Cl)cc2)c2ccccc2C2=NCc3ccccc3CN21 (stereo not drawn)
- EC50: > 200 µM
- IC50: 33.1 µM

SMILES: CC1C2=C(CC(C)(C)CC2=O)NC2=C1C(=O)CC(C)(C)C2
- EC50: > 200 µM
- IC50: 166 µM

SMILES: N/C=N/S(=O)(=O)c1ccc(NC(=O)COC(=O)c2cccc3c(=O)c4ccccc4[nH]c23)cc1
- outcome: inactive

SMILES: O=C(Cn1c2ccc(Br)cc2c2nc3ccccc3nc21)NNC(=S)NC1CCCCC1
- EC50: > 200 µM
- IC50: 36.3 µM

SMILES: N#C/C(=C\c1ccc(Cl)cc1)c1nc2ccccc2c(=O)[nH]1
- outcome: inactive

SMILES: COc1ccc(-c2cc(=O)c3cc(Cl)cc(Cl)c3o2)cc1OC
- EC50: > 100 µM
- IC50: > 100 µM

SMILES: Cc1noc(C)c1CCCOC1COc2ccccc2OCCOCCOc2ccccc2OC1
- EC50: > 100 µM
- IC50: > 100 µM

SMILES: COc1ccccc1-n1c(N)c2c(C)c(-c3ccccc3)[nH]c2nc1=S
- EC50: > 200 µM
- IC50: 38 µM
